{
  "source": "patent EP2387991A1",
  "about": "“Vitamin E succinate stabilized pharmaceutical compositions, methods for the preparation and the use thereof” (Adventrx Pharmaceuticals, Inc., priority 2006, dated 2007)",
  "origin": "cited, not measured here",
  "data": [
    {"molecule": "CC(=O)O[C@@]12CO[C@@H]1C[C@H](O)[C@@]1(C)C(=O)[C@H](O)C3=C(C)[C@@H](OC(=O)[C@H](O)[C@@H](NC(=O)OC(C)(C)C)c4ccccc4)C[C@@](O)([C@@H](OC(=O)c4ccccc4)[C@H]21)C3(C)C", "note": "[Docetaxel, (2R,3S)-N-carboxy-3-phenylisoserine, N-tert-butyl ester, 13-ester with 5β-20-epoxy-1,2α-,4,7β,10β,13α-hexahydroxytax-11-en-9-one 4-acetate 2-benzoate, trihydrate]", "values": [
      {"measurement": "solubility in water", "value": "practically insoluble"}
    ]}
  ]
}
